Key:
Format in all cases: functional
Tetranychus urticae [1] = assay: Acaricidal activity against Tetranychus urticae (two-spotted spider mite) assessed as mite mortality at 500 ppm relative to untreated control
Tetranychus urticae [2] = assay: Acaricidal activity against Tetranychus urticae (two-spotted spider mite) assessed as mite mortality at 200 ppm relative to untreated control
Tetranychus urticae [3] = assay: Acaricidal activity against Tetranychus urticae (two-spotted spider mite) assessed as mite mortality at 12.5 ppm relative to untreated control
Tetranychus urticae [4] = assay: Acaricidal activity against Tetranychus urticae (two-spotted spider mite) assessed as mite mortality at 50 ppm relative to untreated control
Tetranychus urticae [5] = assay: Acaricidal activity against Tetranychus urticae (two-spotted spider mite) assessed as mite mortality at 3.13 ppm relative to untreated control

**Q.** `CCc1nnc(NC(=O)C(Br)C(C)(C)C)s1` (stereo not given) was tested. Which mortality at 500 ppm (Tetranychus urticae [1]) did it give?
**A.** 0%

**Q.** With `CC(Br)C(=O)Nc1nnc(C(F)(F)F)s1` (stereo not given) as the compound, how does the mortality at 500 ppm (Tetranychus urticae [1]) read?
**A.** 0%

**Q.** What does the source list for `CC(CC(Br)C(=O)Nc1nnc(C(F)(F)F)s1)C1CCCCC1` (stereo not given)?
**A.** mortality at 200 ppm (Tetranychus urticae [2]): 0%; mortality at 500 ppm (Tetranychus urticae [1]): 30%

**Q.** Which results are given for `CC(C)(C)C(Br)(Br)C(=O)Nc1nnc(C(F)(F)C(F)(F)C(F)(F)C(F)(F)F)s1`?
**A.** mortality at 200 ppm (Tetranychus urticae [2]): 100%; mortality at 500 ppm (Tetranychus urticae [1]): 100%; mortality at 12.5 ppm (Tetranychus urticae [3]): 30%; mortality at 50 ppm (Tetranychus urticae [4]): 100%

**Q.** For `CC(C)(C)C(Br)(Br)C(=O)Nc1nnc(C(F)(F)F)s1`, which mortality at 200 ppm (Tetranychus urticae [2]) is on record?
**A.** 100%

**Q.** And the mortality at 500 ppm (Tetranychus urticae [1])?
**A.** 100%

**Q.** And the mortality at 12.5 ppm (Tetranychus urticae [3])?
**A.** 30%

**Q.** And the mortality at 50 ppm (Tetranychus urticae [4])?
**A.** 100%

**Q.** With `CCC(C)C(Br)C(=O)Nc1nnc(C(F)(F)F)s1` (stereo not given) as the compound, how does the mortality at 200 ppm (Tetranychus urticae [2]) read?
**A.** 100%

**Q.** What about the mortality at 500 ppm (Tetranychus urticae [1]) of the same compound?
**A.** 100%

**Q.** And the mortality at 12.5 ppm (Tetranychus urticae [3])?
**A.** 30%

**Q.** And the mortality at 50 ppm (Tetranychus urticae [4])?
**A.** 80%

**Q.** Which mortality at 200 ppm (Tetranychus urticae [2]) does the source give for `CC(C)C(Br)C(=O)Nc1nnc(C(F)(F)F)s1` (stereo not given) here?
**A.** 30%

**Q.** What about the mortality at 500 ppm (Tetranychus urticae [1]) of the same compound?
**A.** 100%

**Q.** `CC(C)(C)C(Br)(Br)C(=O)Nc1nnc(C(F)(F)C(F)(F)F)s1` was tested. Which mortality at 200 ppm (Tetranychus urticae [2]) did it give?
**A.** 100%

**Q.** And the mortality at 3.13 ppm (Tetranychus urticae [5])?
**A.** 30%

**Q.** And the mortality at 500 ppm (Tetranychus urticae [1])?
**A.** 100%

**Q.** What about the mortality at 12.5 ppm (Tetranychus urticae [3]) of the same compound?
**A.** 80%

**Q.** And the mortality at 50 ppm (Tetranychus urticae [4])?
**A.** 100%

**Q.** With `CC(C)(C)C(Br)C(=O)Nc1nnc(C(F)(F)C(F)(F)C(F)(F)C(F)(F)C(F)(F)F)s1` (stereo not given) as the compound, how does the mortality at 500 ppm (Tetranychus urticae [1]) read?
**A.** 0%

**Q.** `CC(C)(C)C(Br)C(=O)Nc1nnc(C(F)(F)C(F)(F)C(F)(F)C(F)(F)F)s1` (stereo not given) was tested. Which mortality at 500 ppm (Tetranychus urticae [1]) did it give?
**A.** 0%

**Q.** For `Cc1nnc(NC(=O)C(Br)C(C)(C)C)s1` (stereo not given), which mortality at 500 ppm (Tetranychus urticae [1]) is on record?
**A.** 0%

**Q.** With `CCCCC(Br)C(=O)Nc1nnc(C(F)(F)F)s1` (stereo not given) as the compound, how does the mortality at 500 ppm (Tetranychus urticae [1]) read?
**A.** 0%

**Q.** How did the mortality at 200 ppm (Tetranychus urticae [2]) turn out when `CC(C)(C)C(Br)C(=O)Nc1nnc(C(F)(F)C(F)(F)C(F)(F)F)s1` (stereo not given) was run?
**A.** 30%

**Q.** What about the mortality at 500 ppm (Tetranychus urticae [1]) of the same compound?
**A.** 80%

**Q.** And the mortality at 12.5 ppm (Tetranychus urticae [3])?
**A.** 30%

**Q.** And the mortality at 50 ppm (Tetranychus urticae [4])?
**A.** 30%

**Q.** How did the mortality at 200 ppm (Tetranychus urticae [2]) turn out when `CCCCCC(Br)C(=O)Nc1nnc(C(F)(F)F)s1` (stereo not given) was run?
**A.** 80%

**Q.** And the mortality at 500 ppm (Tetranychus urticae [1])?
**A.** 80%

**Q.** What about the mortality at 12.5 ppm (Tetranychus urticae [3]) of the same compound?
**A.** 0%

**Q.** And the mortality at 50 ppm (Tetranychus urticae [4])?
**A.** 30%

**Q.** What does the source list for `O=C(Nc1nnc(C(F)(F)F)s1)C(Br)C1CCCC1` (stereo not given)?
**A.** mortality at 200 ppm (Tetranychus urticae [2]): 0%; mortality at 500 ppm (Tetranychus urticae [1]): 30%

**Q.** Which mortality at 500 ppm (Tetranychus urticae [1]) does the source give for `O=C(CBr)Nc1nnc(C(F)(F)F)s1` here?
**A.** 0%

**Q.** What does the source list for `CC(C)(C)C(Br)C(=O)Nc1nnc(C(F)(F)C(F)(F)F)s1` (stereo not given)?
**A.** mortality at 200 ppm (Tetranychus urticae [2]): 80%; mortality at 500 ppm (Tetranychus urticae [1]): 100%; mortality at 12.5 ppm (Tetranychus urticae [3]): 30%; mortality at 50 ppm (Tetranychus urticae [4]): 80%

**Q.** How did the mortality at 500 ppm (Tetranychus urticae [1]) turn out when `CC(C)(C)C(Br)C(=O)Nc1nncs1` (stereo not given) was run?
**A.** 0%

**Q.** How did the mortality at 200 ppm (Tetranychus urticae [2]) turn out when `CCCC(Br)C(=O)Nc1nnc(C(F)(F)F)s1` (stereo not given) was run?
**A.** 0%

**Q.** And the mortality at 500 ppm (Tetranychus urticae [1])?
**A.** 30%

**Q.** How did the mortality at 500 ppm (Tetranychus urticae [1]) turn out when `CCC(Br)C(=O)Nc1nnc(C(F)(F)F)s1` (stereo not given) was run?
**A.** 0%

**Q.** For `CC(C)(C)C(Br)(Br)C(=O)Nc1nnc(C(F)(F)C(F)(F)C(F)(F)F)s1`, which mortality at 200 ppm (Tetranychus urticae [2]) is on record?
**A.** 100%

**Q.** And the mortality at 500 ppm (Tetranychus urticae [1])?
**A.** 100%

**Q.** And the mortality at 12.5 ppm (Tetranychus urticae [3])?
**A.** 0%

**Q.** And the mortality at 50 ppm (Tetranychus urticae [4])?
**A.** 80%

**Q.** Which mortality at 500 ppm (Tetranychus urticae [1]) does the source give for `CC(C)(C)CC(=O)Nc1nnc(C(F)(F)F)s1` here?
**A.** 0%

**Q.** Which mortality at 500 ppm (Tetranychus urticae [1]) does the source give for `CC(C)CC(Br)C(=O)Nc1nnc(C(F)(F)F)s1` (stereo not given) here?
**A.** 0%

**Q.** For `CC(C)(C)C(Br)C(=O)Nc1nnc(C(F)(F)F)s1` (stereo not given), which mortality at 200 ppm (Tetranychus urticae [2]) is on record?
**A.** 100%

**Q.** What about the mortality at 500 ppm (Tetranychus urticae [1]) of the same compound?
**A.** 100%

**Q.** What about the mortality at 12.5 ppm (Tetranychus urticae [3]) of the same compound?
**A.** 30%

**Q.** What about the mortality at 50 ppm (Tetranychus urticae [4]) of the same compound?
**A.** 100%

**Q.** With `CC(C)(C)C(Cl)C(=O)Nc1nnc(C(F)(F)F)s1` (stereo not given) as the compound, how does the mortality at 200 ppm (Tetranychus urticae [2]) read?
**A.** 100%

**Q.** What about the mortality at 500 ppm (Tetranychus urticae [1]) of the same compound?
**A.** 100%

**Q.** And the mortality at 12.5 ppm (Tetranychus urticae [3])?
**A.** 30%

**Q.** And the mortality at 50 ppm (Tetranychus urticae [4])?
**A.** 100%

From ChEMBL document CHEMBL3045534, “Synthesis and Acaricidal Activity of N-(1,3,4-Thiadiazol-2-yl)carboxamides” (2003)
